Each compound was assayed on NICD (Notch intracellular domain) CSL-bla reporter in HeLa cells (assay: Notch assay (CellSensor T-REx NICD CSL-bla HeLa beta-lactamase reporter; Method 1 / Method 2)). Settings: Homo sapiens, 10 μM compound, Method 1 (10× compound prepared in assay medium, added to plated cells), read-out: inhibiton (%) at 10 μM.
Format: cell-based
Excerpt: We used the CellSensor T-REx™ NICD CSL-bla HeLa cell line, which was engineered by lentiviral transduction of HeLa cells with a Notch response element driving beta-lactamase reporter gene expression (CSL-bla) along with DOX (doxycycline)-inducible NICD (Notch intracellular domain) constructs. Addition of DOX to these cells allows for regulated NICD transcription factor expression and subsequent beta-lactamase expression.
Specifically, the following protocol was used.
NOTCH ASSAY PROTOCOL (Method 2)
• 1. Add 40 nL/well of working concentration of 1000× compound to 384-well assay plate with Echo. • 2. Plate Cells: 35 μl/well of HeLa/T-REx™ NICD CSL-bla cells at 10^3 cells/well complete medium into 384-well plate. • 3. Add 5 μl 8× Doxycycline in Assay Medium to the treated wells, and 5 μl Assay Medium to the Untreated and cell free control wells. • 4. Incubate the assay plate in a humidified 37° C./5% CO2 incubator for 16-20 hours. • 5. Preparation of 6× LiveBLAzer™-FRET B/G Substrate (CCF4-AM) Mixture according to the manual and cell loading should be done in the absence of direct strong lighting. • 6. Remove assay plate from the humidified 37° C./5% CO2 incubator. Add 8 μl of 6× Substrate Mixture from Step 5 to each well. Cover the plate to protect it from light and evaporation. Incubate at room temperature for 4 hours. • 7. Reading an Assay Plate using the following filter selections:
• 8. Data analysis: Use the assay plate layout to identify the location of the Cell-free wells. These control wells are used for background subtraction. Determine the average emission from the Cell-free wells at both 460 nm (Average Blue Background) and 530 nm(Average Green Background). Subtract the Average Blue Background (data collected at 460 nm) from all of the blue emission data. Subtract the Average Green background (data collected at 530 nm) from all of the green emission data. Calculate the Blue/Green Emission Ratio for each well, by dividing the background-subtracted blue emission values by the background-subtracted green emission values.
Instead of Step 1 to Step 3, the following Step a to Step d can also be performed. The subsequent steps are the same as Method 2, after Step 4 (Method 1). • a. Plate Cells: 32 μL/well of HeLa/T-REx™ NICD CSL-bla cells at 10^3 cells/well complete medium into 384-well plate. • b. Prepare 10× compounds in assay medium. • c. Add 4 μL compounds or 1% DMSO in assay medium to the cells. • d. Add 4 μL 10×Doxycycline in Assay Medium to the treated wells, and 4 μL Assay Medium to the Untreated and cell free control wells.
The results are shown in Table 13 (Table 13-1 to Table 13-2).

For `CC(C)[C@H]1C(=O)N(Cc2cccc3ccccc23)CC2N(C(=O)OCc3cccc4ccccc34)O[C@H](CC(N)=O)C(=O)N21` (stereo partly drawn) [Compound I-19, (3R,6S)-naphthalen-1-ylmethyl 3-(2-amino-2-oxoethyl)-6-isopropyl-8-(naphthalen-1-ylmethyl)-4,7-dioxohexahydropyrazino[2,1-c][1,2,4]oxadiazine-1(6H)-carboxylate], which inhibition at 10 µM is on record?
The inhibition at 10 µM was 67.3%.

`CC(C)CCN1CC2N(C(=O)OCc3cccc4ccccc34)O[C@H](C(C)C)C(=O)N2[C@@H](Cc2ccc(O)cc2)C1=O` (stereo partly drawn) [Compound I-9, (3R,6S)-naphthalen-1-ylmethyl 6-(4-hydroxybenzyl)-8-isopentyl-3-isopropyl-4,7-dioxohexahydropyrazino[2,1-c][1,2,4]oxadiazine-1(6H)-carboxylate] was tested. Which inhibition at 10 µM did it give?
Its inhibition at 10 µM is 70%.

Which inhibition at 10 µM does the source give for `CCCC[C@H]1C(=O)N(CC2CCCCC2)CC2N(C(=O)OCc3cccc4ccccc34)O[C@@H](CC(N)=O)C(=O)N21` (stereo partly drawn) [Compound I-26, (3S,6S)-naphthalen-1-ylmethyl 3-(2-amino-2-oxoethyl)-6-butyl-8-(cyclohexylmethyl)-4,7-dioxohexahydropyrazino[2,1-c][1,2,4]oxadiazine-1(6H)-carboxylate] here?
The inhibition at 10 µM was 68.4%.

For `CCCC[C@H]1ON(C(=O)OCc2cccc3ccccc23)C2CN(C(C)C)C(=O)[C@H](Cc3ccc(O)cc3)N2C1=O` (stereo partly drawn) [Compound I-12, (3R,6S)-naphthalen-1-ylmethyl 3-butyl-6-(4-hydroxybenzyl)-8-isopropyl-4,7-dioxohexahydropyrazino[2,1-c][1,2,4]oxadiazine-1(6H)-carboxylate], which inhibition at 10 µM is on record?
Its inhibition at 10 µM is 71%.

Same assay, conditions: Homo sapiens, 10 μM compound, Method 2 (40 nL of 1000× compound added to plate with Echo), read-out: inhibiton (%) at 10 μM

With `CC[C@H](C)CN1CC2N(C(=O)OCC(C)C)O[C@H](CC3CCCCC3)C(=O)N2[C@@H](CCCCN)C1=O` (stereo partly drawn) [Compound I-40, (3R,6S)-isobutyl 6-(4-aminobutyl)-3-(cyclohexylmethyl)-8-((S)-2-methylbutyl)-4,7-dioxohexahydropyrazino[2,1-c][1,2,4]oxadiazine-1(6H)-carboxylate] as the compound, how does the inhibition at 10 µM read?
The inhibition at 10 µM was 124%.

With `C[C@H]1ON(C(=O)OCCc2ccccc2)C2CN([C@@H](Cc3ccccc3)C(=O)NCCC(N)=O)C(=O)[C@H](Cc3ccccc3)N2C1=O` (stereo partly drawn) [Compound I-85, phenethyl (3R,6S)-8-((S)-1-((3-amino-3-oxopropyl)amino)-1-oxo-3-phenylpropan-2-yl)-6-benzyl-3-methyl-4,7-dioxohexahydro-pyrazino[2,1-c] [1,2,4]oxadiazine-1(6H)-carboxylate] as the compound, how does the inhibition at 10 µM read?
The inhibition at 10 µM was 66.5%.

For `CC[C@H](C)OC(=O)N1O[C@H](Cc2ccccc2)C(=O)N2C1CN(CCc1cccc3ccccc13)C(=O)[C@@H]2CCCCN` (stereo partly drawn) [Compound I-33, (3R,6S)-(S)-sec-butyl 6-(4-aminobutyl)-3-benzyl-8-(2-(naphthalen-1-yl)ethyl)-4,7-dioxohexahydropyrazino[2,1-c][1,2,4]oxadiazine-1(6H)-carboxylate], which inhibition at 10 µM is on record?
Its inhibition at 10 µM is 59.6%.

How did the inhibition at 10 µM turn out when `O=C(NCCO)[C@H](Cc1ccccc1)N1CC2N(C(=O)OCCc3ccc(O)cc3)O[C@H](Cc3ccccc3)C(=O)N2[C@@H](Cc2ccccc2)C1=O` (stereo partly drawn) [Compound I-80, 4-hydroxyphenethyl (3R,6S)-3,6-dibenzyl-8-(S)-1-(2-hydroxyethyl)amino)-1-oxo-3-phenylpropan-2-yl)-4,7-dioxohexahydropyrazino[2,1-c][1,2,4]oxadiazine-1(6H)-carboxylate] was run?
The inhibition at 10 µM was 63%.

How did the inhibition at 10 µM turn out when `O=C1[C@H](CO)N2C(=O)[C@@H](Cc3ccc(O)cc3)ON(C(=O)OCc3ccccc3)C2CN1CCc1cccc2ccccc12` (stereo partly drawn) [Compound I-48, (3R,6S)-benzyl 3-(4-hydroxybenzyl)-6-(hydroxymethyl)-8-(2-(naphthalen-1-yl)ethyl)-4,7-dioxohexahydropyrazino[2,1-c][1,2,4]oxadiazine-1(6H)-carboxylate] was run?
Its inhibition at 10 µM is 57.3%.

How did the inhibition at 10 µM turn out when `CC(C)C[C@H]1ON(CCCC2CCN(C(=O)c3ccc(C(=O)c4ccccc4)cc3)CC2)C2CN(C3CCN(C)CC3)C(=O)[C@H](CC(C)C)N2C1=O` (stereo partly drawn) [Compound I-148, (3R,6S)-1-(3-(1-(4-benzoylbenzoyl)piperidin-4-yl)propyl)-3,6-diisobutyl-8-(1-methylpiperidin-4-yl)tetrahydropyrazino[2,1-c][1,2,4]oxadiazine-4,7(3H,6H)-dione] was run?
Its inhibition at 10 µM is 76.6%.

How did the inhibition at 10 µM turn out when `O=C(NCCCO)[C@H](Cc1ccccc1)N1CC2N(C(=O)OCCc3ccc(O)cc3)O[C@H](Cc3ccccc3)C(=O)N2[C@@H](Cc2ccccc2)C1=O` (stereo partly drawn) [Compound I-81, 4-hydroxyphenethyl (3R,6S)-3,6-dibenzyl-8-((S)-1-((3-hydroxypropyl)amino)-1-oxo-3-phenylpropan-2-yl)-4,7-dioxohexahydro-pyrazino[2,1-c] [1,2,4]oxadiazine-1(6H)-carboxylate] was run?
The inhibition at 10 µM was 53%.

Which inhibition at 10 µM does the source give for `CC(C)OC(=O)N1O[C@H](CC2CCCCC2)C(=O)N2C1CN(CCc1ccccc1)C(=O)[C@@H]2CCCCN` (stereo partly drawn) [Compound I-37, (3R,6S)-isopropyl 6-(4-aminobutyl)-3-(cyclohexylmethyl)-4,7-dioxo-8-phenethylhexahydropyrazino [2,1-c][1,2,4]oxadiazine-1(6H)-carboxylate] here?
Its inhibition at 10 µM is 87.3%.

For `CCCC[C@@H](C(=O)NCCC(C)C)N1CC2N(C(=O)OCCc3ccc(O)cc3)O[C@H](Cc3ccccc3)C(=O)N2[C@@H](Cc2ccc(O)cc2)C1=O` (stereo partly drawn) [Compound I-109, 4-hydroxyphenethyl (3R,6S)-3-benzyl-6-(4-hydroxybenzyl)-8-((S)-1-(isopentylamino)-1-oxohexan-2-yl)-4,7-dioxohexahydropyrazino[2,1-c][1,2,4]oxadiazine-1(6H)-carboxylate], which inhibition at 10 µM is on record?
Its inhibition at 10 µM is 74%.

Which inhibition at 10 µM does the source give for `CC(C)CCNC(=O)[C@H](Cc1ccc(O)cc1)N1CC2N(C(=O)OCCc3ccc(O)cc3)O[C@H](Cc3ccccc3)C(=O)N2[C@@H](Cc2ccc(O)cc2)C1=O` (stereo partly drawn) [Compound I-108, 4-hydroxyphenethyl (3R,6S)-3-benzyl-6-(4-hydroxybenzyl)-8-((S)-3-(4-hydroxyphenyl)-1-(isopentylamino)-1-oxopropan-2-yl)-4,7-dioxohexahydropyrazino[2,1-c][1,2,4]oxadiazine-1(6H)-carboxylate] here?
Its inhibition at 10 µM is 72.4%.

Which inhibition at 10 µM does the source give for `CC(C)CCOC(=O)N1O[C@H](C)C(=O)N2C1CN([C@@H](Cc1ccccc1)C(=O)NCCCC(N)=O)C(=O)[C@@H]2Cc1ccccc1` (stereo partly drawn) [Compound I-87, isopentyl (3R,6S)-8-((S)-1-((4-amino-4-oxobutyl)amino)-1-oxo-3-phenylpropan-2-yl)-6-benzyl-3-methyl-4,7-dioxohexahydro-pyrazino[2,1-c] [1,2,4]oxadiazine-1(6H)-carboxylate] here?
Its inhibition at 10 µM is 58.3%.

With `C[C@H]1ON(C(=O)OCCc2ccc(O)cc2)C2CN([C@@H](Cc3ccccc3)C(=O)NCCC(N)=O)C(=O)[C@H](Cc3ccccc3)N2C1=O` (stereo partly drawn) [Compound I-86, 4-hydroxyphenethyl (3R,6S)-8-((S)-1-((3-amino-3-oxopropyl)amino)-1-oxo-3-phenylpropan-2-yl)-6-benzyl-3-methyl-4,7-dioxohexahydro-pyrazino[2,1-c] [1,2,4]oxadiazine-1(6H)-carboxylate] as the compound, how does the inhibition at 10 µM read?
Its inhibition at 10 µM is 70.9%.

Which inhibition at 10 µM does the source give for `CC(C)CCCNC(=O)[C@H](Cc1ccc(O)cc1)N1CC2N(C(=O)OCCc3ccccc3)O[C@H](CC(C)C)C(=O)N2[C@@H](Cc2ccc(O)cc2)C1=O` (stereo partly drawn) [Compound I-99, phenethyl (3R,6S)-6-(4-hydroxybenzyl)-8-((S)-3-(4-hydroxyphenyl)-1-((4-methylpentyl)amino)-1-oxopropan-2-yl)-3-isobutyl-4,7-dioxohexahydropyrazino [2,1-c][1,2,4]oxadiazine-1(6H)-carboxylate] here?
Its inhibition at 10 µM is 58%.
